Test [1] addresses Mitogen-activated protein kinase kinase kinase kinase 1 (Homo sapiens, UniProt Q92918). The experiment in a line: HPK1 Lantha Binding Assay (“Lanth”). Here is the method:
(§1) Assay Condition:The following assay concentrations and times were used: 2 nM HPK1, 2 nM Eu-Anti-GST Ab, and 15 nM Tracer222, with 60 min incubation time.HPK Lantha Binding Assay:For the binding assay, 4 ul 2X HPK1 and Eu-anti-GST antibody were added to each well of the assay plate using a Multidrop reagent dispenser. The solutions were incubated in a 23 C incubator for 1 h. To each well of the assay plate was added 4 ul 2× Tracer-222 using a Multidrop reagent dispenser. The solutions were again incubated in a 23 C incubator for 1 h. The results of the assay were read using an Envision plate reader with the following parameters:TR_FRET, 340ex/615 and 665em; 100 usec Delay; and 200 usec integration.

Test [2] concerns the target T1, Mitogen-activated protein kinase kinase kinase kinase 1 [T165E,S171E] (Homo sapiens, UniProt Q92918, S171E/T165E).
T1 construct: gene MAP4K1
The experiment in a line: HPK1 Lantha Binding Assay (“Lanth”). Here is the method:
as §1

A word on the Ki: it is the dissociation constant of the complex between target and ligand, obtained from inhibition or displacement. High values mean lower affinity, low ones higher affinity.

Chain of Mitogen-activated protein kinase kinase kinase kinase 1 (Q92918 whole entry): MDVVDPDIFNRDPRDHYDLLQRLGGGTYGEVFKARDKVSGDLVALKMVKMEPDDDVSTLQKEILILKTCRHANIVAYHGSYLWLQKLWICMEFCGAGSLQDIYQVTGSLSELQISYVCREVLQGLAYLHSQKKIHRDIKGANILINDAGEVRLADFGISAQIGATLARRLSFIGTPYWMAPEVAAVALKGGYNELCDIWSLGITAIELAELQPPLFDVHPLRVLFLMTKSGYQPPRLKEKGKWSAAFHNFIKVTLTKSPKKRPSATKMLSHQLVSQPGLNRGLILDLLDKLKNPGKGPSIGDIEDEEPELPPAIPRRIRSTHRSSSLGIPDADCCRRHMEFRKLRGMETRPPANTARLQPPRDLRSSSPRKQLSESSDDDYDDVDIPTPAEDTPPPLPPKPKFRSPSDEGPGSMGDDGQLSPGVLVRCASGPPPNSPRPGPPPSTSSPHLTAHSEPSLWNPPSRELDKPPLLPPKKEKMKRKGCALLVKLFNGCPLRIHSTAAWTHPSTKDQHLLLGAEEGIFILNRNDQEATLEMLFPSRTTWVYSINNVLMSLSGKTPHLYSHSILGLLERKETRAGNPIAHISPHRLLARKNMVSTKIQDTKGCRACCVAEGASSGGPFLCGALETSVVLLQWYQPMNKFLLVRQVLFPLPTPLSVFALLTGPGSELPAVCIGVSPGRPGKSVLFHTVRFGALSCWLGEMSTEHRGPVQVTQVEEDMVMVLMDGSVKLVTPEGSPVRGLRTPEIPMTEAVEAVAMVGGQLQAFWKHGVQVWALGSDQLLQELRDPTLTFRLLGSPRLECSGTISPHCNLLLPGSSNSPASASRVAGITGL
T1 sequence (Q92918 whole entry T165E/S171E, looked up): as the sequence (Q92918 whole entry) above, with T165E, S171E counted along it

The molecule `CCc1ccnc(Nc2cc3cc(-c4cnccc4C)ccc3cn2)c1` [US12378249, Compound 105] displayed a Ki in test [1] of 6 nM. The molecule `Cc1c(N)cncc1-c1cc2cc(Nc3cc4n(n3)CC(=O)N(CCN3CC(O)C3)CC4)ncc2cc1F` [US12378249, Compound 165] yielded a Ki in test [2] of 0.013 nM.
